Measured values published in the NIST ThermoML archive (doi:10.1016/j.jct.2010.02.010).

Details: for mass density: 101.33 kPa, Buoyancy - hydrostatic balance; for mass density / surface tension liquid-gas: Liquid; for surface tension liquid-gas: Maximal bubble pressure

CCCC[n+]1ccccc1.[O]=[Re](=[O])(=[O])[O-] [1-butylpyridinium perrhenate]
Details | mass density [kg/m3] | surface tension liquid-gas [mN/m]
293.15 K | 1910.1 | 41.6
298.15 K | 1902.5 | 41.2
303.15 K | 1894.9 | 40.7
308.15 K | 1886.9 | 40.5
313.15 K | 1881.8 | 40
318.15 K | 1877.6 | 39.7
323.15 K | 1869.2 | 39.4
328.15 K | 1862.7 | 39
333.15 K | 1856.9 | 38.6
338.15 K | 1853.2 | 38.3
343.15 K | 1846.8 | 38.2

Details | Glass transition temperature [°C]
Glass, DTA | -66
